According to publication PMC7602263, “Exploring the Use of Helicogenic Amino Acids for Optimising Single Chain Relaxin-3 Peptide Agonists” (Biomedicines, 2020):
Read-outs that look alike come from different tables or passages of the source. Where a SMILES comes first, the peptide text is derived from it. Bridges are numbered along the chain shown (N, C = ends). Where no end group is shown, it is not given here. [ ]: non-standard residue; d: D form. S5 = C=CCCC[C@](C)(N)C(=O)O

Columns and labels:
[1] = target: T1, RXFP3 (Homo sapiens, UniProt Q9NSD7); assay: cAMP activity assay: inhibition of forskolin-induced cAMP accumulation in CHO-K1 cells stably expressing RXFP3; format: cell-based; conditions: for EC50: CHO-K1 cells stably expressing RXFP3, inhibition of cAMP accumulation stimulated by 5 μM forskolin, mean ± SEM, triplicates, three independent experiments
T1 construct: expressed in transfected cells; host or cells: CHO-K1
T1 sequence (Q9NSD7 1-469): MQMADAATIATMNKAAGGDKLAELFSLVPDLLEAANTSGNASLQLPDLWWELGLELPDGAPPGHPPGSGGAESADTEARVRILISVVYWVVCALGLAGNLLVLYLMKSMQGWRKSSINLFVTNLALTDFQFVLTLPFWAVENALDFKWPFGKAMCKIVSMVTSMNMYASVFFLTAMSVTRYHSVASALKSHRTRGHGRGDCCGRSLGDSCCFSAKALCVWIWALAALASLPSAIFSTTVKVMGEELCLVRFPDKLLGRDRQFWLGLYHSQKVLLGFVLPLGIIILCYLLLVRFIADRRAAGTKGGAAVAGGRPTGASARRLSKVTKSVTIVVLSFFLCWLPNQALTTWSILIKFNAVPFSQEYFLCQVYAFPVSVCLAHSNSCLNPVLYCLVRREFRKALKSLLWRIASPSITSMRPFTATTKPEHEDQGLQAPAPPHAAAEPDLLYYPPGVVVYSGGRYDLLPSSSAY
Protocol: CHO-KI cells stably expressing RXFP3 were used to study the ability of the novel analogues to inhibit forskolin-induced cAMP accumulation. Assays were conducted as previously described. Briefly, 5 μM forskolin was used to stimulate the cells and increasing concentrations of the novel analogues were added to measure the dose-dependent reduction in the cAMP response via activation of the Gi/o-coupled RXFP3. Each analogue was tested in triplicates and each experiment was independently repeated three times. Data are presented as mean ± SEM and were analysed using GraphPad Prism 8.0. Statistical analyses were conducted using 1-way ANOVA and uncorrected Fisher’s least square difference.
(§1) To determine their binding affinity, the ability of increasing concentration of analogues to compete with europium labelled R3 B1-22R were measured using CHO cells stably expressing RXFP3 [37]. Their potency at RXFP3 was measured by inhibition of cAMP accumulation induced by forskolin, as RXFP3 couples to an inhibitory G-protein.

[2] = target: T1, RXFP3; assay: Competition binding assay with Eu-labelled R3 B1-22R on CHO-K1 cells stably expressing RXFP3; conditions: read-out: pKi [logM] (converted)
Protocol: Determination of binding affinity in this study was carried out as previously described. Briefly, CHO-K1 cells stably expressing RXFP3 [38] were treated with 5 nM Eu-labelled R3 B1-22R with increasing concentrations of novel analogues. Fluorescence measurement were recorded with 340 nm excitation and 614 nm emission wavelengths. Assays were conducted in triplicates and independently repeated at least three times. […] Statistical analyses were conducted using 1-way ANOVA with uncorrected Fisher’s least square difference in GraphPad Prism 8.0.
as §1

Compound	EC50 ([1]; SEM) [µM]	Ki ([2]; SEM) [µM]	also measured
CC[C@H](C)[C@H](NC(=O)[C@H](Cc1ccccc1)NC(=O)C(C)(C)NC(=O)[C@H](CCCNC(=N)N)NC(=O)CNC(=O)[C@H](CO)NC(C)=O)C(=O)N[C@@H](CCCNC(=N)N)C(=O)NC(C)(C)C(=O)N[C@H](C(=O)N[C@H](C(=O)N[C@@H](Cc1ccccc1)C(=O)NC(C)(C)C(=O)N[C@@H](CO)C(=O)NCC(=O)NCC(=O)N[C@@H](CO)C(=O)N[C@@H](CCCNC(=N)N)C(=O)N[C@@H](Cc1c[nH]c2ccccc12)C(=O)O)[C@@H](C)CC)C(C)C [Analogue 6] (HELM PEPTIDE1{[ac].S.G.R.[Aib].F.I.R.[Aib].V.I.F.[Aib].S.G.G.S.R.W}$$$$V2.0)	1.86	1.7	
CC[C@H](C)[C@H](NC(=O)[C@@H](NC(=O)C(C)(C)NC(=O)[C@H](CCCNC(=N)N)NC(=O)[C@@H](NC(=O)C(C)(C)NC(=O)C(C)(C)NC(=O)[C@H](CCCNC(=N)N)NC(=O)CNC(=O)[C@H](CO)NC(C)=O)[C@@H](C)CC)C(C)C)C(=O)N[C@@H](Cc1ccccc1)C(=O)N[C@H](C(=O)N[C@@H](CO)C(=O)NCC(=O)NCC(=O)N[C@@H](CO)C(=O)N[C@@H](CCCNC(=N)N)C(=O)N[C@@H](Cc1c[nH]c2ccccc12)C(=O)O)[C@@H](C)O [Analogue 2] (HELM PEPTIDE1{[ac].S.G.R.[Aib].[Aib].I.R.[Aib].V.I.F.T.S.G.G.S.R.W}$$$$V2.0)	0.55	1.48	
RAAPYGVRLSGREFIRAVIFTSGGSRW [H3 B-chain, reference compound]		1.23	
CC[C@H](C)[C@H](NC(=O)[C@H](Cc1ccccc1)NC(=O)C(C)(C)NC(=O)[C@H](CCCNC(=N)N)NC(=O)CNC(=O)[C@@H](N)CO)C(=O)N[C@@H](CCCNC(=N)N)C(=O)NC(C)(C)C(=O)NC(C)(C)C(=O)N[C@H](C(=O)N[C@@H](Cc1ccccc1)C(=O)N[C@H](C(=O)N[C@@H](CO)C(=O)NCC(=O)NCC(=O)N[C@@H](CO)C(=O)N[C@@H](CCCNC(=N)N)C(=O)N[C@@H](Cc1c[nH]c2ccccc12)C(=O)O)[C@@H](C)O)[C@@H](C)CC [Analogue 3] (HELM PEPTIDE1{S.G.R.[Aib].F.I.R.[Aib].[Aib].I.F.T.S.G.G.S.R.W}$$$$V2.0)	0.0912		
CC[C@H](C)[C@@H]1NC(=O)[C@H](Cc2ccccc2)NC(=O)[C@@H](NC(=O)[C@H](CCCNC(=N)N)NC(=O)CNC(=O)[C@@H](N)CO)CSCC(=O)CSC[C@@H](C(=O)N[C@H](C(=O)N[C@H](C(=O)N[C@@H](Cc2ccccc2)C(=O)N[C@H](C(=O)N[C@@H](CO)C(=O)NCC(=O)NCC(=O)N[C@@H](CO)C(=O)N[C@@H](CCCNC(=N)N)C(=O)N[C@@H](Cc2c[nH]c3ccccc23)C(=O)O)[C@@H](C)O)[C@@H](C)CC)C(C)C)NC(=O)[C@H](CCCNC(=N)N)NC1=O [Analogue 14] (HELM PEPTIDE1{S.G.R.C.F.I.R.C.V.I.F.T.S.G.G.S.R.W}|CHEM1{[O=C(C[*:1])C[*:2]]}$PEPTIDE1,CHEM1,4:R3-1:R1|PEPTIDE1,CHEM1,8:R3-1:R2$$$V2.0)	6.17		Ki [2]: > 10 µM
CC[C@H](C)[C@@H]1NC(=O)[C@H](Cc2ccccc2)NC(=O)[C@@](C)(NC(=O)[C@H](CCCNC(=N)N)NC(=O)CNC(=O)[C@H](CO)NC(C)=O)CCCC=CCCC[C@@](C)(C(=O)N[C@H](C(=O)N[C@H](C(=O)N[C@@H](Cc2ccccc2)C(=O)N[C@H](C(=O)N[C@@H](CO)C(=O)NCC(=O)NCC(=O)N[C@@H](CO)C(=O)N[C@@H](CCCNC(=N)N)C(=O)N[C@@H](Cc2c[nH]c3ccccc23)C(=O)O)[C@@H](C)O)[C@@H](C)CC)C(C)C)NC(=O)[C@H](CCCNC(=N)N)NC1=O [Ac-R3B10-27 [13/17 HC], reference compound] (Ac-SGR[S5]FIR[S5]VIFTSGGSRW-OH; staple 4-8)		0.0417	
CC[C@H](C)[C@H](NC(=O)[C@H](Cc1ccccc1)NC(=O)C(C)(C)NC(=O)[C@H](CCCNC(=N)N)NC(=O)CNC(=O)[C@@H](N)CO)C(=O)N[C@@H](CCCNC(=N)N)C(=O)NC(C)(C)C(=O)N[C@H](C(=O)N[C@H](C(=O)N[C@@H](Cc1ccccc1)C(=O)N[C@H](C(=O)NC(C)(C)C(=O)NCC(=O)NCC(=O)N[C@@H](CO)C(=O)N[C@@H](CCCNC(=N)N)C(=O)N[C@@H](Cc1c[nH]c2ccccc12)C(=O)O)[C@@H](C)O)[C@@H](C)CC)C(C)C [Analogue 7] (HELM PEPTIDE1{S.G.R.[Aib].F.I.R.[Aib].V.I.F.T.[Aib].G.G.S.R.W}$$$$V2.0)		1.12	EC50 [1]: > 10 µM; maximum cAMP accumulation inhibition ([1]; at the highest concentration tested, CHO-K1 cells expressing RXFP3, forskolin-stimulated (Figure 3)): ~ 50%
CC[C@H](C)[C@@H]1NC(=O)[C@H](Cc2ccccc2)NC(=O)[C@@H](NC(=O)[C@H](CCCNC(=N)N)NC(=O)CNC(=O)[C@H](CO)NC(C)=O)CSCC(=O)CSC[C@@H](C(=O)N[C@H](C(=O)N[C@H](C(=O)N[C@@H](Cc2ccccc2)C(=O)N[C@H](C(=O)N[C@@H](CO)C(=O)NCC(=O)NCC(=O)N[C@@H](CO)C(=O)N[C@@H](CCCNC(=N)N)C(=O)N[C@@H](Cc2c[nH]c3ccccc23)C(=O)O)[C@@H](C)O)[C@@H](C)CC)C(C)C)NC(=O)[C@H](CCCNC(=N)N)NC1=O [Analogue 15] (HELM PEPTIDE1{[ac].S.G.R.C.F.I.R.C.V.I.F.T.S.G.G.S.R.W}|CHEM1{[O=C(C[*:1])C[*:2]]}$PEPTIDE1,CHEM1,5:R3-1:R1|PEPTIDE1,CHEM1,9:R3-1:R2$$$V2.0)	4.79	4.79	
C=CCCC[C@](C)(NC(=O)[C@H](CCCNC(=N)N)NC(=O)CNC(=O)[C@H](CO)NC(C)=O)C(=O)N[C@@H](Cc1ccccc1)C(=O)N[C@H](C(=O)N[C@@H](CCCNC(=N)N)C(=O)N[C@@](C)(CCCC=C)C(=O)N[C@H](C(=O)N[C@H](C(=O)N[C@@H](Cc1ccccc1)C(=O)N[C@H](C(=O)N[C@@H](CO)C(=O)NCC(=O)NCC(=O)N[C@@H](CO)C(=O)N[C@@H](CCCNC(=N)N)C(=O)N[C@@H](Cc1c[nH]c2ccccc12)C(=O)O)[C@@H](C)O)[C@@H](C)CC)C(C)C)[C@@H](C)CC [Analogue 11] (HELM PEPTIDE1{[ac].S.G.R.[C=CCCC[C@](C)(N[*:1])C(=O)[*:2]].F.I.R.[C=CCCC[C@](C)(N[*:1])C(=O)[*:2]].V.I.F.T.S.G.G.S.R.W}$$$$V2.0)	0.0417	0.933	
CC[C@H](C)[C@H](NC(=O)[C@H](Cc1ccccc1)NC(=O)C(C)(C)NC(=O)[C@H](CCCNC(=N)N)NC(=O)CNC(=O)[C@@H](N)CO)C(=O)N[C@@H](CCCNC(=N)N)C(=O)NC(C)(C)C(=O)N[C@H](C(=O)N[C@H](C(=O)N[C@@H](Cc1ccccc1)C(=O)NC(C)(C)C(=O)N[C@@H](CO)C(=O)NCC(=O)NCC(=O)N[C@@H](CO)C(=O)N[C@@H](CCCNC(=N)N)C(=O)N[C@@H](Cc1c[nH]c2ccccc12)C(=O)O)[C@@H](C)CC)C(C)C [Analogue 5] (HELM PEPTIDE1{S.G.R.[Aib].F.I.R.[Aib].V.I.F.[Aib].S.G.G.S.R.W}$$$$V2.0)			EC50 [1]: 1.02 µM
CC[C@H](C)[C@@H]1NC(=O)[C@H](Cc2ccccc2)NC(=O)[C@@](C)(NC(=O)[C@H](CCCNC(=N)N)NC(=O)CNC(=O)[C@H](CO)NC(=O)[C@H](CCCCN)NC(=O)[C@H](CCCCN)NC(=O)[C@H](CCCCN)NC(=O)[C@@H](N)CCCCN)CCCC=CCCC[C@@](C)(C(=O)N[C@H](C(=O)N[C@H](C(=O)N[C@@H](Cc2ccccc2)C(=O)N[C@H](C(=O)N[C@@H](CO)C(=O)NCC(=O)NCC(=O)N[C@@H](CO)C(=O)N[C@@H](CCCNC(=N)N)C(=O)N[C@@H](Cc2c[nH]c3ccccc23)C(=O)O)[C@@H](C)O)[C@@H](C)CC)C(C)C)NC(=O)[C@H](CCCNC(=N)N)NC1=O [Analogue 12] (H-KKKKSGR[S5]FIR[S5]VIFTSGGSRW-OH; staple 8-12)	0.00646	0.182	
